Test system: MV-4-11 cells
Assay: Gene expression microarray analysis (Affymetrix PrimeView) and GSEA
Type: cell-based, human
Design: RFU PODN (11730768_x_at) / Fold change /veh PODN (11730768_x_at) / RFU LINC00158 (11744669_a_at) / Fold change /veh LINC00158 (11744669_a_at) / RFU DUSP10 (11751237_a_at) / Fold change /veh DUSP10 (11751237_a_at) / RFU ID3 (11757404_x_at) / Fold change /veh ID3 (11757404_x_at) / RFU PLEKHG5 (11737974_s_at) / Fold change /veh PLEKHG5 (11737974_s_at) / RFU LRRC4B (11730491_at) / Fold change /veh LRRC4B (11730491_at) / RFU GIMAP4 (11747438_a_at) / Fold change /veh GIMAP4 (11747438_a_at) / RFU KRT8 (11758183_x_at) / Fold change /veh KRT8 (11758183_x_at) / RFU CNN1 (11734310_a_at) / Fold change /veh CNN1 (11734310_a_at) / RFU VPS37D (11726825_at) / Fold change /veh VPS37D (11726825_at) / RFU C10orf10 (11716522_x_at) / Fold change /veh C10orf10 (11716522_x_at) / RFU KIR2DL2 /// KIR2DL4 /// KIR2DL5A /// KIR2DL5B /// KIR2DS1 /// KIR2DS2 /// KIR2DS3 /// KIR2DS4 /// KIR3DL3 /// KIR3DL3 /// KIR3DS1 (11738374_at) / Fold change /veh KIR2DL2 /// KIR2DL4 /// KIR2DL5A /// KIR2DL5B /// KIR2DS1 /// KIR2DS2 /// KIR2DS3 /// KIR2DS4 /// KIR3DL3 /// KIR3DL3 /// KIR3DS1 (11738374_at) / RFU C1QL1 (11718748_at) / Fold change /veh C1QL1 (11718748_at) / RFU TMPRSS4 (11747572_a_at) / Fold change /veh TMPRSS4 (11747572_a_at) / RFU HAMP (11756126_x_at) / Fold change /veh HAMP (11756126_x_at) / RFU RNFT2 (11725882_a_at) / Fold change /veh RNFT2 (11725882_a_at) / RFU NR4A2 (11747474_a_at) / Fold change /veh NR4A2 (11747474_a_at) / RFU ABCC12 (11746883_a_at) / Fold change /veh ABCC12 (11746883_a_at) / RFU TMEM136 (11760407_x_at) / Fold change /veh TMEM136 (11760407_x_at) / RFU CLDN22 /// WWC2 (11732394_at) / Fold change /veh CLDN22 /// WWC2 (11732394_at) / RFU HLA-DPB1 (11760878_x_at) / Fold change /veh HLA-DPB1 (11760878_x_at) / RFU SPINT1 (11716480_a_at) / Fold change /veh SPINT1 (11716480_a_at) / RFU GAP43 (11754022_s_at) / Fold change /veh GAP43 (11754022_s_at) / RFU A4GNT (11735810_at) / Fold change /veh A4GNT (11735810_at) / RFU PRB3 (11715151_x_at) / Fold change /veh PRB3 (11715151_x_at) / RFU TUBB4B (11761932_at) / Fold change /veh TUBB4B (11761932_at) / RFU CAPN14 (11732068_a_at) / Fold change /veh CAPN14 (11732068_a_at) / RFU TMCC2 (11721928_a_at) / Fold change /veh TMCC2 (11721928_a_at) / RFU IRGQ (11745062_a_at) / Fold change /veh IRGQ (11745062_a_at) / RFU FAM174B (11720279_a_at) / Fold change /veh FAM174B (11720279_a_at) / RFU TMPRSS4 (11748680_a_at) / Fold change /veh TMPRSS4 (11748680_a_at) / RFU FAM212B (11763350_a_at) / Fold change /veh FAM212B (11763350_a_at) / RFU PLEKHG5 (11743358_a_at) / Fold change /veh PLEKHG5 (11743358_a_at) / RFU ZSCAN30 (11745921_a_at) / Fold change /veh ZSCAN30 (11745921_a_at) / RFU CMKLR1 (11741424_a_at) / Fold change /veh CMKLR1 (11741424_a_at) / RFU LOC101060620 /// MAPK8IP1 (11723275_at) / Fold change /veh LOC101060620 /// MAPK8IP1 (11723275_at) / RFU SPTSSB (11747773_x_at) / Fold change /veh SPTSSB (11747773_x_at) / RFU PRSS12 (11739890_at) / Fold change /veh PRSS12 (11739890_at) / RFU BIN1 (11741810_x_at) / Fold change /veh BIN1 (11741810_x_at) / RFU WNT11 (11732464_a_at) / Fold change /veh WNT11 (11732464_a_at) / RFU C10orf10 (11716521_a_at) / Fold change /veh C10orf10 (11716521_a_at) / RFU C5orf56 (11738089_at) / Fold change /veh C5orf56 (11738089_at) / RFU CYB561 (11721691_x_at) / Fold change /veh CYB561 (11721691_x_at) / RFU ANKRD19P (11752326_a_at) / Fold change /veh ANKRD19P (11752326_a_at) / RFU OR2T12 /// OR2T33 /// OR2T8 (11738714_s_at) / Fold change /veh OR2T12 /// OR2T33 /// OR2T8 (11738714_s_at) / RFU VCAN (11748164_a_at) / Fold change /veh VCAN (11748164_a_at) / RFU JSRP1 (11732532_at) / Fold change /veh JSRP1 (11732532_at) / RFU KRTAP10-11 (11738290_x_at) / Fold change /veh KRTAP10-11 (11738290_x_at) / RFU MYO3A (11730013_a_at) / Fold change /veh MYO3A (11730013_a_at) / RFU EBF3 (11725865_a_at) / Fold change /veh EBF3 (11725865_a_at) / RFU CAMK2N1 (11719241_x_at) / Fold change /veh CAMK2N1 (11719241_x_at) / RFU C5orf56 (11738088_a_at) / Fold change /veh C5orf56 (11738088_a_at) / RFU OLFML3 (11715873_a_at) / Fold change /veh OLFML3 (11715873_a_at) / RFU LOC100653217 /// NTM (11731650_a_at) / Fold change /veh LOC100653217 /// NTM (11731650_a_at) / RFU MAPK11 (11762145_a_at) / Fold change /veh MAPK11 (11762145_a_at) / RFU FIZ1 (11724087_x_at) / Fold change /veh FIZ1 (11724087_x_at) / RFU OASL (11726364_x_at) / Fold change /veh OASL (11726364_x_at) / RFU SOX15 (11748057_x_at) / Fold change /veh SOX15 (11748057_x_at) / RFU CD79A (11719716_a_at) / Fold change /veh CD79A (11719716_a_at) / RFU HIST1H1D (11736915_at) / Fold change /veh HIST1H1D (11736915_at) / RFU CASKIN2 (11723855_a_at) / Fold change /veh CASKIN2 (11723855_a_at) / RFU LOC730098 (11760151_x_at) / Fold change /veh LOC730098 (11760151_x_at) / RFU OR4N2 (11742367_at) / Fold change /veh OR4N2 (11742367_at) / RFU PRRT2 (11749266_a_at) / Fold change /veh PRRT2 (11749266_a_at) / RFU SNX32 (11753110_a_at) / Fold change /veh SNX32 (11753110_a_at) / RFU CDHR5 (11726645_a_at) / Fold change /veh CDHR5 (11726645_a_at) / RFU RCAN1 (11760418_a_at) / Fold change /veh RCAN1 (11760418_a_at) / RFU FAM167A (11723789_a_at) / Fold change /veh FAM167A (11723789_a_at) / RFU FAM26E (11764081_at) / Fold change /veh FAM26E (11764081_at) / RFU ISYNA1 (11749810_s_at) / Fold change /veh ISYNA1 (11749810_s_at) / RFU ACY1 (11761880_at) / Fold change /veh ACY1 (11761880_at) / RFU 11764098_at / Fold change /veh 11764098_at / RFU SAMD14 (11745864_x_at) / Fold change /veh SAMD14 (11745864_x_at) / RFU NPB (11741838_a_at) / Fold change /veh NPB (11741838_a_at) / RFU TMPRSS6 (11731388_a_at) / Fold change /veh TMPRSS6 (11731388_a_at) / RFU KRTAP10-2 (11738614_at) / Fold change /veh KRTAP10-2 (11738614_at) / RFU ARHGAP8 /// PRR5-ARHGAP8 (11727945_x_at) / Fold change /veh ARHGAP8 /// PRR5-ARHGAP8 (11727945_x_at) / RFU KRTAP5-7 /// NADSYN1 (11734609_at) / Fold change /veh KRTAP5-7 /// NADSYN1 (11734609_at) / RFU RASL12 (11751679_a_at) / Fold change /veh RASL12 (11751679_a_at) / RFU CDKN2B (11736163_a_at) / Fold change /veh CDKN2B (11736163_a_at) / RFU PRF1 (11729649_at) / Fold change /veh PRF1 (11729649_at) / RFU, ZNF638 /// ZNF638-IT1 / Fold change vs veh, ZNF638 /// ZNF638-IT1 / RFU, PANK3 / Fold change vs veh, PANK3 / RFU, SH3YL1 / Fold change vs veh, SH3YL1 / RFU, ZEB2 / Fold change vs veh, ZEB2 / RFU, NRIP1 / Fold change vs veh, NRIP1 / RFU, PTTG1IP / Fold change vs veh, PTTG1IP / RFU, CAPN2 / Fold change vs veh, CAPN2 / RFU, MED14 / Fold change vs veh, MED14 / RFU, SNORA58 / Fold change vs veh, SNORA58 / RFU, C1orf63 / Fold change vs veh, C1orf63 / RFU, LRRFIP1 / Fold change vs veh, LRRFIP1 / RFU, NDUFAF7 / Fold change vs veh, NDUFAF7 / RFU, SLC12A2 / Fold change vs veh, SLC12A2 / RFU, IBTK / Fold change vs veh, IBTK / RFU, ESF1 / Fold change vs veh, ESF1 / Fold change vs veh, TMEM50B / RFU, TAOK1 / Fold change vs veh, TAOK1 / RFU, ACBD3 / Fold change vs veh, ACBD3 / RFU, TMA16 / Fold change vs veh, TMA16 / RFU, RWDD3 / Fold change vs veh, RWDD3 / RFU, BCAT1 / Fold change vs veh, BCAT1 / RFU, EDEM3 / Fold change vs veh, EDEM3 / RFU, TMEM33 / Fold change vs veh, TMEM33 / RFU, WDR75 / Fold change vs veh, WDR75 / RFU, AHCTF1 / Fold change vs veh, AHCTF1 / RFU, TFRC / Fold change vs veh, TFRC / RFU, ZDHHC17 / Fold change vs veh, ZDHHC17 / RFU, NOM1 / Fold change vs veh, NOM1 / RFU, ARL8B / Fold change vs veh, ARL8B / RFU, ZBTB11 / Fold change vs veh, ZBTB11 / RFU, TAMM41 / Fold change vs veh, TAMM41 / RFU, KIAA1704 /// LOC100996395 / Fold change vs veh, KIAA1704 /// LOC100996395 / RFU, ING1 / Fold change vs veh, ING1 / RFU, TRMT61B / Fold change vs veh, TRMT61B / RFU, FUBP3 / Fold change vs veh, FUBP3 / RFU, TP53 / Fold change vs veh, TP53 / RFU, TNKS2 / Fold change vs veh, TNKS2 / RFU, ZFP14 / Fold change vs veh, ZFP14 / RFU, ACTR2 / Fold change vs veh, ACTR2 / RFU, PPP3R1 / Fold change vs veh, PPP3R1 / RFU, PIK3R1 / Fold change vs veh, PIK3R1 / RFU, HNRNPA1 / Fold change vs veh, HNRNPA1 / RFU, RNF170 / Fold change vs veh, RNF170 / RFU, ZNF28 / Fold change vs veh, ZNF28 / RFU, RNGTT / Fold change vs veh, RNGTT / RFU, OGT / Fold change vs veh, OGT / RFU, BRD1 / Fold change vs veh, BRD1 / RFU, MARS / Fold change vs veh, MARS / RFU, ZNF655 / Fold change vs veh, ZNF655 / RFU, FAHD1 / Fold change vs veh, FAHD1 / RFU, BDP1 / Fold change vs veh, BDP1 / RFU, LRRCC1 / Fold change vs veh, LRRCC1 / RFU, ARID1A / Fold change vs veh, ARID1A / RFU, ZNF146 / Fold change vs veh, ZNF146 / RFU, ZNF330 / Fold change vs veh, ZNF330 / RFU, GPN3 / Fold change vs veh, GPN3 / RFU, C9orf123 / Fold change vs veh, C9orf123 / RFU, N4BP2L2 / Fold change vs veh, N4BP2L2 / RFU, ARFIP1 / Fold change vs veh, ARFIP1 / RFU, FAM179B / Fold change vs veh, FAM179B / RFU, BCL10 / Fold change vs veh, BCL10 / RFU, UHRF1BP1L / Fold change vs veh, UHRF1BP1L / RFU, BET1 / Fold change vs veh, BET1 / RFU, CNOT2 / Fold change vs veh, CNOT2 / RFU, ZNF268 / Fold change vs veh, ZNF268 / Fold change vs veh, ZNF507 / RFU, DGCR2 / Fold change vs veh, DGCR2 / RFU, WDSUB1 / Fold change vs veh, WDSUB1 / Fold change vs veh, HSP90B1 /// MIR3652 / RFU, ADSS / Fold change vs veh, ADSS / RFU, GK / Fold change vs veh, GK / RFU, ZNF148 / Fold change vs veh, ZNF148 / RFU, TAF9 / Fold change vs veh, TAF9 / RFU, SLC1A5 / Fold change vs veh, SLC1A5 / RFU, SLMO2 / Fold change vs veh, SLMO2 / RFU, ABCC4 / Fold change vs veh, ABCC4 / RFU, LOC101060439 /// RAP1B / Fold change vs veh, LOC101060439 /// RAP1B / RFU, RFX7 / Fold change vs veh, RFX7 / RFU, GTPBP10 / Fold change vs veh, GTPBP10 / RFU, CNEP1R1 / Fold change vs veh, CNEP1R1 / RFU, BIVM-ERCC5 /// ERCC5 / Fold change vs veh, BIVM-ERCC5 /// ERCC5 / RFU, ILF3 / Fold change vs veh, ILF3 / RFU 11762660_at / Fold change /veh 11762660_at / RFU VCAN (11757783_s_at) / Fold change /veh VCAN (11757783_s_at) / RFU DDX43 (11728927_at) / Fold change /veh DDX43 (11728927_at) / RFU KRT8 (11758188_x_at) / Fold change /veh KRT8 (11758188_x_at) / RFU NKD1 (11759106_at) / Fold change /veh NKD1 (11759106_at) / RFU SRD5A1 (11742802_a_at) / Fold change /veh SRD5A1 (11742802_a_at) / RFU TPSAB1 /// TPSB2 (11721975_s_at) / Fold change /veh TPSAB1 /// TPSB2 (11721975_s_at) / RFU GSTM3 (11746129_a_at) / Fold change /veh GSTM3 (11746129_a_at) / RFU IL23R (11737362_x_at) / Fold change /veh IL23R (11737362_x_at) / RFU TMEM51 (11727254_a_at) / Fold change /veh TMEM51 (11727254_a_at) / RFU PIWIL2 (11732686_x_at) / Fold change /veh PIWIL2 (11732686_x_at) / RFU ORM1 (11744905_x_at) / Fold change /veh ORM1 (11744905_x_at) / RFU CCDC152 (11743942_at) / Fold change /veh CCDC152 (11743942_at) / RFU ECM1 (11717891_a_at) / Fold change /veh ECM1 (11717891_a_at) / RFU IL23R (11748794_a_at) / Fold change /veh IL23R (11748794_a_at) / RFU TNFAIP8L3 (11732012_x_at) / Fold change /veh TNFAIP8L3 (11732012_x_at) / RFU MBOAT4 (11741988_at) / Fold change /veh MBOAT4 (11741988_at) / RFU 11764193_at / Fold change /veh 11764193_at / RFU TMEM53 (11763286_at) / Fold change /veh TMEM53 (11763286_at) / RFU MAGEB2 (11727129_at) / Fold change /veh MAGEB2 (11727129_at) / RFU TMEM200A (11744735_a_at) / Fold change /veh TMEM200A (11744735_a_at) / RFU CCDC152 (11751479_a_at) / Fold change /veh CCDC152 (11751479_a_at) / RFU FAM211A (11726209_a_at) / Fold change /veh FAM211A (11726209_a_at) / RFU RGS16 (11746705_a_at) / Fold change /veh RGS16 (11746705_a_at) / RFU VCAN (11755009_s_at) / Fold change /veh VCAN (11755009_s_at) / RFU RHOB (11743442_s_at) / Fold change /veh RHOB (11743442_s_at) / RFU RGS16 (11720943_a_at) / Fold change /veh RGS16 (11720943_a_at) / RFU RGS16 (11720944_at) / Fold change /veh RGS16 (11720944_at) / RFU, VPS4B / Fold change vs veh, VPS4B / RFU, CREB1 / Fold change vs veh, CREB1 / RFU, DNAJC13 / Fold change vs veh, DNAJC13 / RFU, GNAQ / Fold change vs veh, GNAQ / RFU, CDK5R1 / Fold change vs veh, CDK5R1 / RFU, ZRANB3 / Fold change vs veh, ZRANB3 / RFU, CUL4A / Fold change vs veh, CUL4A / RFU, CCNY / Fold change vs veh, CCNY / RFU, UFL1 / Fold change vs veh, UFL1 / RFU, COG3 / Fold change vs veh, COG3 / RFU, DIAPH2 / Fold change vs veh, DIAPH2 / RFU, SKA2 / Fold change vs veh, SKA2 / RFU, AFF3 / Fold change vs veh, AFF3 / RFU, LMF1 / Fold change vs veh, LMF1 / RFU, IPO11 / Fold change vs veh, IPO11 / RFU, DFFB / Fold change vs veh, DFFB / RFU, FOXP1 / Fold change vs veh, FOXP1 / RFU, CARD8 / Fold change vs veh, CARD8 / RFU, STRN3 / Fold change vs veh, STRN3 / RFU, ADK / Fold change vs veh, ADK / RFU, RASSF2 / Fold change vs veh, RASSF2 / RFU, WIPF1 / Fold change vs veh, WIPF1 / RFU, LARP1B / Fold change vs veh, LARP1B / RFU, RASA1 / Fold change vs veh, RASA1 / RFU, RB1 / Fold change vs veh, RB1 / RFU, PPFIA1 / Fold change vs veh, PPFIA1 / RFU, MAT2A / Fold change vs veh, MAT2A / RFU, CCT5 / Fold change vs veh, CCT5 / RFU, WDR92 / Fold change vs veh, WDR92 / RFU, CUX1 / Fold change vs veh, CUX1 / RFU, TTC7A / Fold change vs veh, TTC7A / RFU, TMEM135 / Fold change vs veh, TMEM135 / RFU, DEPTOR / Fold change vs veh, DEPTOR / RFU, CPM / Fold change vs veh, CPM / RFU, DNAJB6 / Fold change vs veh, DNAJB6 / RFU, CACNA2D3 / Fold change vs veh, CACNA2D3 / RFU, DTX4 / Fold change vs veh, DTX4 / RFU, TFCP2 / Fold change vs veh, TFCP2 / RFU, GMCL1 /// GMCL1P1 / Fold change vs veh, GMCL1 /// GMCL1P1 / RFU, AEBP2 / Fold change vs veh, AEBP2 / RFU, SNHG1 /// SNORD22 /// SNORD25 /// SNORD26 /// SNORD27 /// SNORD28 /// SNORD29 /// SNORD31 / Fold change vs veh, SNHG1 /// SNORD22 /// SNORD25 /// SNORD26 /// SNORD27 /// SNORD28 /// SNORD29 /// SNORD31 / Fold change (Aza/veh), C12orf56 (ProbeSet 11735607_a_at) / Fold change (ACY-1035/veh), C12orf56 (ProbeSet 11735607_a_at) / Fold change (Aza/veh), FGFR1OP (ProbeSet 11751329_s_at) / Fold change (ACY-1035/veh), FGFR1OP (ProbeSet 11751329_s_at) / Fold change (Aza/veh), VPS36 (ProbeSet 11739960_a_at) / Fold change (ACY-1035/veh), VPS36 (ProbeSet 11739960_a_at) / RFU SYPL1 (11715823_x_at) / Fold change /veh SYPL1 (11715823_x_at) / RFU IGFBP7 (11715501_s_at) / Fold change /veh IGFBP7 (11715501_s_at) / RFU REEP3 (11722064_at) / Fold change /veh REEP3 (11722064_at) / RFU IGLL1 (11728026_x_at) / Fold change /veh IGLL1 (11728026_x_at): dose or concentration left out as unconfirmed
Details: ProbeSet 11733108_at; LIST D

In the case of Nc1ncn([C@@H]2O[C@H](CO)[C@@H](O)[C@H]2O)c(=O)n1 [azacitidine], the “RFU, GNAQ” value is reported as 233.19 RFU.

— article PMC5218480 (PLoS ONE, 2017)
